Test results reported in the SangsterLogP compilation.

Assay: method code SF-AS, from DOI: 10.1111/j.2042-7158.1992.tb05470.x, PMID: 1357140
Conditions: pH 7.4

logD: 0.96
Compound: CC(C)NC(=S)NS(=O)(=O)c1cnccc1NC1CCCCCC1
